# According to PubChem BioAssay (NCI):
# Several values for one entry are separate records, joined by “and”; a condition that tells them apart may be missing. Equal entries are not always repeated.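 A five-concentration, 48-hour dose response in 96-well plates underlies each endpoint, interpolated linearly between surrounding concentrations. Here, GI50 denotes the concentration required for 50% inhibition of growth. The concentration for full growth arrest is given as TGI.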
# Columns and labels:
# Test in all cases: NCI tumour cell line growth inhibition, 48 h
# [1] = test system: CAKI-1 renal
# [2] = test system: SN12C renal
# [3] = test system: KM12 colon
# [4] = test system: U251 CNS
# [5] = test system: RXF 393 renal
# [6] = test system: NCI/ADR-RES ovarian
# [7] = test system: MDA-MB-231 breast
# [8] = test system: IGROV1 ovarian
# [9] = test system: NCI-H522 lung
# [10] = test system: SR leukemia
SMILES,GI50 [1],TGI [1] [µM],GI50 [2] [µM],TGI [2] [µM],GI50 [3],TGI [3] [µM],GI50 [4],TGI [4] [µM],GI50 [5],TGI [5] [µM],GI50 [6] [µM],TGI [6] [µM],GI50 [7] [µM],TGI [7] [µM],GI50 [8] [µM],GI50 [9] [µM],TGI [8] [µM],TGI [9] [µM],TGI [10] [µM],GI50 [10] [µM]
CN1C(=O)/C(=C/c2c(Cl)n(C)c3ccccc23)c2ccccc21,3.3 µM and 1.43 µM,2.77,1.82,9.33,3.34 µM and 1.31 µM,3.49,3.7 µM and 1.73 µM,3.16,7.89 µM and 1.56 µM,3.84,1.92,5.17,1.99,8.59,4.34,5.12,,,,
CSc1ccc2c(c1)C(=O)c1c-2n(CCCBr)c(=O)c2cc([N+](=O)[O-])ccc12,1.09 µM,8.94,0.893,6.95,46.1 µM,> 100,1.98 µM,> 100,> 100 µM,> 100,5.5,> 100,> 100,> 100,12.1,5.32,> 100,97.4,,
Cc1cc(NS(=O)(=O)c2ccc(Nc3c4ccccc4nc4c(C(=O)N5CCN(CCO)CC5)ccc(Cl)c34)cc2)no1,,> 100,,> 100,,> 100,,> 100,,> 100,,,,,,,> 100,,,
O=Cc1ccc2c(c1-c1c(C=O)ccc3c1OCO3)OCO2,,> 100,,> 100,,> 100,,> 100,,,,,,,,,> 100,> 100,> 100,
CCC1CCc2c(c(=O)oc3c2cc(OC)c2cccc(OC)c23)C1 (stereo not drawn),,> 100,,> 100,,> 100,,> 100,,89.9,,,,,,,> 100,> 100,> 100,
Cc1c(/C=N/NC(=O)c2ccc(Cl)cc2)c(=O)n(-c2ccccc2)n1C,,,,> 100,,> 100,,> 100,,> 100,,,,,,,> 100,> 100,> 100,
O=P1(c2ccccc2)CCCCC1,,,,> 100,,> 100,,> 100,,> 100,,,,,,,> 100,,> 100,
COc1ncc(-c2ccc3ncnc(Nc4cccc(Cl)c4)c3c2)cc1NS(=O)(=O)C1CC1,,,1.58,> 100,38.9 µM,> 100,4.75 µM,> 100,0.519 µM,> 100,1.17,> 100,3.38,> 100,,,,,> 100,> 100
COc1cc2c(OC)cc1CSCc1sc(C)c(c1Br)CSC2,,> 100,,> 100,,> 100,,> 100,,> 100,,,,,,,> 100,,> 100,
CCn1c(=O)c2c(=O)c3c4c(oc3oc2c2ccccc21)C(=O)c1ccccc1C4=O,,,> 100,> 100,> 100 µM,> 100,> 27.1 µM,> 100,> 31.7 µM,> 100,13.8,> 100,,,> 50.1,> 100,> 100,> 100,,
